Data as given in patent US5763441A, “Compounds for the treatment of disorders related to vasculogenesis and/or angiogenesis” (Sugen, Inc., priority 1995, dated 1998).
Like-named read-outs stand apart in the source and are kept apart here.

How the values were obtained:
[1] = target: T1, FLK-1 receptor (Mus musculus, UniProt P35918); assay: ELISA assay to measure kinase activity of FLK-1 receptor in FLK-1/NIH cells; type: cell-based, murine
T1 construct: expressed in transfected cells; host or cells: NIH3T3C7#3 cells (FLK-1 infected NIH3T3)
T1 sequence (P35918 20-1345): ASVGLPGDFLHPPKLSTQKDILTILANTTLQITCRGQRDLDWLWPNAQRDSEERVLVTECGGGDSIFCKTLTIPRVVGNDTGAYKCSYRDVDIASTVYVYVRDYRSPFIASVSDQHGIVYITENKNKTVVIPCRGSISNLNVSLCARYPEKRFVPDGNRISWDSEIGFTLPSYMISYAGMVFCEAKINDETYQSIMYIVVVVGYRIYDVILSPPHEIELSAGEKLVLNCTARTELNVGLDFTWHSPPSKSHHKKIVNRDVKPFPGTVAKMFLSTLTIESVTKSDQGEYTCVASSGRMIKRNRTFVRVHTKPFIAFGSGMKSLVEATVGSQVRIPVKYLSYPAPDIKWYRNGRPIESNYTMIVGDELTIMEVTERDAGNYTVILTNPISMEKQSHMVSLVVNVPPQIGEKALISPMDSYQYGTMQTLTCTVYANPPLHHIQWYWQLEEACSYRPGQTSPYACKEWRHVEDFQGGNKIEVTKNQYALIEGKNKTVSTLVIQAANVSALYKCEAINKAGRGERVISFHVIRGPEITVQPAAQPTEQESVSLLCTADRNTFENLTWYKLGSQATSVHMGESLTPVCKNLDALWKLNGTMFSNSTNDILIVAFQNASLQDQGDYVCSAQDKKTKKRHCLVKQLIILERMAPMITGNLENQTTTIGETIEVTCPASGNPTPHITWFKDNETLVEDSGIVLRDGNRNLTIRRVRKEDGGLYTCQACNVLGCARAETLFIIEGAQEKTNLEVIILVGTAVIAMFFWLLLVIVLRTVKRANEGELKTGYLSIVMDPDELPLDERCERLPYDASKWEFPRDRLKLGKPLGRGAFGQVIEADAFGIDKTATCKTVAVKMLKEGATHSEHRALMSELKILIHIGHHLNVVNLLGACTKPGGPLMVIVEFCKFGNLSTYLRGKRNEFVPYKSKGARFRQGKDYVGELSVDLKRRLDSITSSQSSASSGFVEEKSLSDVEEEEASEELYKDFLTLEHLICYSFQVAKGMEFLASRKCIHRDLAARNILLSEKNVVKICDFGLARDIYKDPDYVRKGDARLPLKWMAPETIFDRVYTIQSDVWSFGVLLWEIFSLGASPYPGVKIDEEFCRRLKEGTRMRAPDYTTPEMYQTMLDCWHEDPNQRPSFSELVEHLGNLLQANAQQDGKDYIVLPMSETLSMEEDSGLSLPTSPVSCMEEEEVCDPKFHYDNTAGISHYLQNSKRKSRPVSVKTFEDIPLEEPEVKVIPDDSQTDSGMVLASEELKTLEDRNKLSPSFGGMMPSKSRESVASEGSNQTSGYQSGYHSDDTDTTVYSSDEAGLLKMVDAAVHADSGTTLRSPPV
Method: ELISA Assay To Measure Kinase Activity Of FLK-1 Receptor In FLK-1/NIH Cells
An ELISA assay was conducted to measure the kinase activity of the FLK-1 receptor and more specifically, the inhibition or activiation of protein tyrosine kinase activity on the FLK-1 receptor.
k. NIH3T3C7#3 Cells (FLK-1 infected cells);
Protocol. The following protocol was used to conduct the ELISA Assay:
1. Coat Corning 96-well elisa plates with 1.0 ug per well Cappel Anti-rabbit IgG antibody in 0.1M Na2CO3 pH 9.6. Bring final volume to 150 ul per well. Coat plates overnight at 4° C. Plates can be kept up to two weeks when stored at 4° C.
2. Grow cells in 30 ml of Growth media 9DMEM. 2.0 mM L-Glutamine, 10% FBS) until confluent in 150 cm tissue culture dishes at 37° C., 5% CO2.
3. Harvest cells by tyrpsination and seed in Corning 25850 polystyrene 96-well roundbottom cell plates, 25.000 cells/well in 200 uL of growth media.
4. Grow cells at least one day at 37° C., 5% CO2.
5. Wash cells with D-PBS 1X.
6. Add 200 ul/well of starvation media (DMEM, 2.0 mM l-Glutamine, 0.1% FBS). Incubate overnight at 37° C., 5% CO2.
7. Dilute Compounds/Extracts 1:20 in polyproplyene 96 well plates using starvation media. Dilute dimethylsulfoxide 1:20 for use in control wells.
8. Remove starvation media from 96 well cell culture plates and add 162 ul of fresh starvation media to each well.
9. Add 18 ul of 1:20 diluted Compound/Extract dilution (from step #7) to each well plus the 1:20 dimethylsulfoxide dilution to the control wells (+/-VEGF), for a final dilution of 1:200 after cell stimulation. Final dimethylsulfoxide is 0.5%. Incubate the plate at 37° C., 5% CO2 for two hours.
10. Remove unbound antibody from Elisa plates by inverting plate to remove liquid. Wash 3 times with TBSW+0.5% Ethanolamine, pH 7.0. Pat the plate on a paper towel to remove excess liquid and bubbles.
11. Block plates with TBSW+0.5% Ethanolamine, pH 7.0. 150 ul per well. Incubate plate thirty minutes while shaking on a microtiter plate shaker.
12. Wash plate 3 times as described in step 10.
13. Add 0.5 ug/well affinity purified anti-flk-1 polyclonal rabbit antiserum. Bring final volume to 150 ul/well with TBSW+0.5k Ethanolamine pH 7.0. Incubate plate for thirty minutes while shaking.
14. Add 180 μl starvation medium to the cells and stimulate cells with 20 ul/well 10.0 mM Sodium Ortho Vanadate and 500 ng/ml VEGF (resulting in a final concentration of 1.0 mM Sodium Ortho Vanadate and 50 ng/ml VEGF per well) for eight minutes at 37° C., 5% CO2. Negative control wells receive only starvation medium.
15. After eight minutes, media are removed from the cells and washed one time with 200 ul/well PBS.
16. Lyse cells in 150 ul/well HNTG while shaking at room temperature for five minutes. HNTG formulation includes sodium ortho vanadate, sodium pyro phosphate and EDTA.
17. Wash Elisa plate three times as described in step 10.
18. Transfer cell lysates from the cell plate to elisa plate and incubate while shaking for two hours. To transfer cell lysate pipette up and down while scrapping the wells.
19. Wash plate three times as described in step 10.
20. Incubate Elisa plate with 0.02 ug/well UB40 in TBSW+05% ethanolamine. Bring final volume to 150 ul/well. Incubate while shaking for 30 minutes.
21. Wash plate three times as described in step 10.
22. Incubate elisa plate with 1:10,000 diluted EIA grade Goat anti-mouse IgG conjugated horseradish peroxidase in TBSW+0.5% ethanolamine, pH 7.0. Bring final volume to 150 ul/well. Incubate while shaking for thirty minutes.
23. Wash plate as described in step 10.
24. Add 100 ul of ABTS/H202 solution to well. Incubate ten minutes while shaking.
25. Add 100 ul of 0.2M HCL for 0.1M HCL final to stop the colordevelopment reaction. Shake 1 minute at room temperature. Remove bubbles with slow stream of air and read the ELISA plate in an ELISA plate reader at 410 nm.

[2] = tested on: Calu-6; assay: Tumor xenograft growth inhibition, Calu-6 (lung); type: in vivo, human
Excerpt: The ability of one of the compounds of the present invention, leflunomide (Compound 40), to inhibit ovarian, melanoma, prostate, lung and mammary tumor cell lines established as SC xenografts was examined. […]
The tumor cells were implanted subcutaneously into the indicated strains of mice. Treatment was initiated on day 1 post implantation unless otherwise indicated (e.g. treatment of the SCID mouse related to the A375 melanoma cell line began on Day 9). Eight (8) to ten (10) mice comprised each test group.
Animals. Female athymic mice (BALB/c, nu/nu), BALB/c mice, Wistar rats and Fisher 344 rats were obtained from Simonsen Laboratories (Gilroy, Calif.). Female A/I mice were obtained from Jackson Laboratory (Bar Harbor, Me.). DA rats were obtained from B&K Universal, Inc. (Fremont, Calif.). Athymic R/Nu rats, DBA/2N mice, and BALB/c mice were obtained from Harlan Sprague Dawley (Indianapolis, Ind.). Female C57BL/6 mice were obtained from Taconic (Germantown, N.Y.). All animals were maintained under clean-room conditions in Micro-isolator cages with Alpha-dri bedding. They received sterile rodent chow and water ad libitum.
Subcutaneous Xenograft Model. Cell lines were grown in appropriate medium as described (See Section 6). Cells were harvested at or near confluency with 0.05% Trypsin-EDTA and pelleted at 450×g for 10 min. Pellets were resuspended in sterile PBS or media (without FBS) to a suitable concentration indicated in the Figure legends and the cells were implanted into the hindflank of mice. Tumor growth was measured over 3 to 6 weeks using venier calipers tumor volumes were calculated as a product of length x width x height unless otherwise indicated. P values were calculated using the Students' t-test. su101 in 50-100 uL excipient (dimethylsulfoxide, PBTE, PBTE6C:D5W, or PBTE:D5W) was delivered by IP injection at concentrations indicated in the Figure legends.

[3] = FLK-1R ELISA, VEGF-stimulated FLK-1/NIH cells

SMILES	IC50 [1] [µM]	also measured
Cc1cc2ncc(Nc3ccc(I)cc3)nc2cc1C [Compound 13, 2-[(4-iodophenyl)amino]-6,7-dimethyl quinoxaline]	10.4	
N#CCS(=O)(=O)/C(C#N)=C/c1cc(O)c(O)c(Br)c1 [Compound 26, (E)-2-cyanomethylsufonyl-3-(3-bromo-4,5-dihydroxyphenyl)acrylonitrile]	11	
CC(C)(C)c1cc(/C=C(/C#N)c2[nH]nc(N)c2C#N)cc(C(C)(C)C)c1O [Compound 4, (E)-2-[(3-amino-4-cyano)pyrazo-5-yl]-3-(3,5-di-t-butyl-4-hydroxyphenyl)acrylonitrile]	8.9	inhibition, CALU-6 (in words) ([2]; 20 mg/kg/day): no significant inhibition
N#C/C(=C\c1cc(O)c(O)c(I)c1)C(=O)NCCCc1ccccc1 [Compound 3]		IC50 [1, 3]: 4.9 µM
N#C/C(=C\c1ccc(O)c(O)c1)C(=O)NCCCCNC(=O)/C(C#N)=C/c1ccc(O)c(O)c1 [Compound 8, (E,E)-2-[[4-[[1-cyano-2-(3,4-dihydroxyphenyl)ethenyl]carbonylamino]-n-butyl]aminocarbonyl]-3-(3,4-dihydroxyphenyl)acrylonitrile]	10.8	
Cc1cc2ncc(-c3ccc(O)c(O)c3)nc2cc1C [Compound 14, 2-(3,4-dihydroxyphenyl) -6,7-dimethylquinoxaline]	9.3	
N#C/C(=C\c1ccc(O)c(O)c1)S(=O)(=O)/C(C#N)=C/c1ccc(O)c(O)c1 [Compound 9]		IC50 [1, 3]: 27.4 µM
COc1cc2nc(Cl)nc(Nc3cccc(Cl)c3)c2cc1OC [Compound 21, 2-chloro-4-(3-chlorophenylamino)-6,7-dimethoxyquinazoline]	9.9	
Cc1ccc(Sc2ncnc3ccc(C)cc23)cc1 [Compound 20]	17.8	
N#CC(C(=O)Nc1cccc(C(F)(F)F)c1)C(=S)Nc1ccccc1Cl (stereo not drawn) [Compound 25, N-(2-chlorophenyl)-2-cyano-2-(N-3-trifluorophenylamino-carbonyl)-thioacetamide]	8.5	
Cc1cc2ncc(Nc3ccc(Cl)c(Cl)c3)nc2cc1C [Compound 17, 2-(3,4-dichlorophenylamino)-6,7-dimethylquinoxaline]	15	
CC(C)(C)c1cc(/C=C(\C#N)C(N)=S)cc(C(C)(C)C)c1O [Compound 1, (E)-2-aminothiocarbonyl-3 (3,5-di-t-butyl-4-hydroxyphenyl)acrylonitrile]		IC50 ([1]; FLK-1R ELISA, VEGF-stimulated FLK-1/NIH cells, read-out: IC50): 0.8 µM
N#CC(C#N)=NNc1cccc(Cl)c1 [Compound 22]	2.3	
CC(C)c1cc(/C=C(\C#N)C(=S)NCCCc2ccccc2)cc(C(C)C)c1O [Compound 11, (E)-2-[3-phenyl-n-propylaminothiocarbonyl]-3-(3,5-diisopropyl-4-hydroxyphenyl)acrylonitrile]	9.8	
COC(=O)c1ccc(NCc2cc(O)ccc2O)cc1 [Compound 24, N-(2,5-dihydroxylbenzyl)-4-methoxycarbonylaniline]	28.9	
CCCNc1nc2ccccc2nc1Cl [Compound 19, 2-(n-propylamino)-3-chloroquinoxaline]	25.6	
N#C/C(=C\c1cc(O)c(O)c(I)c1)C(=O)NCc1ccccc1 [Compound 6, (E)-2-(benzylaminocarbonyl)-3-(3-iodo-4,5-dihydroxyphenyl)acrylonitrile]	21.2	
CC1c2nc3ccccc3c(=O)n2C(c2ccc(O)cc2)N1Cc1ccccc1 (stereo not drawn) [Compound 27]	3.4	
Cc1ccc2ncnc(Nc3cccc(O)c3)c2c1 [Compound 16, 4-(3-hydroxyphenylamino)-6-methylquinazoline]	35.1	
N#C/C(=C\c1ccc(O)c(O)c1)C(=O)NCCNC(=O)/C(C#N)=C/c1ccc(O)c(O)c1 [Compound 7]		IC50 [1, 3]: 37.5 µM
N#C/C(=C\c1cc(O)c(O)c(Br)c1)S(=O)(=O)/C(C#N)=C/c1cc(O)c(O)c(Br)c1 [Compound 12, (E)-2-[1-cyano-2-(5-bromo-3,4-dihydroxyphenyl)ethenylsulfonyl]-3-(3-bromo-4,5-dihydroxyphenyl)acrylonitrile]	7.1	inhibition, CALU-6 (in words) ([2]; 20 mg/kg/day): no detectable inhibition
Oc1cccc(Nc2ncnc3ccccc23)c1 [Compound 18, 4-(3-hydroxyphenylamino)-quinazoline]	34.6	
c1ccc(-c2cnc3cc4ccccc4cc3n2)cc1 [Compound 23, 2-phenyl-1,4-diaza-anthracene]	4.4	inhibition, CALU-6 ([2]; 20 mg/kg/day): 41%
N#C/C(=C\c1ccc2[nH]ccc2c1)C(=O)c1ccc(O)c(O)c1 [Compound 10, (E)-3-(indol-5-yl)-2-(3,4-dihydroxyphenylcarbonyl)acrylonitrile]	17.7	
N#CC(C#N)=Cc1cc(O)c(O)c(I)c1 [Compound 2, (E)-2-cyano-3-(3-iodo-4,5-hydroxyphenyl)acrylonitrile]		inhibition, CALU-6 (in words) ([2]; 20 mg/kg/day): no detectable inhibition; inhibition, CALU-6 (in words) ([2]; 40 mg/kg/day): no detectable inhibition
Cc1cc2ncc(Nc3cccc(Cl)c3)nc2cc1C [Compound 28, 2-(3-chlorophenylamino)-6,7-dimethylquinoxaline]	16	
